Measurements taken from patent US4395969A (priority 1981, dated 1983).
“And” between values parts separate entries of the source, which are not always exact repeats. Equal entries are not always repeated.

Legend:
cutthroat trout = assay: Static bioassay, lethal concentration to cutthroat trout; type: in vivo, S. clarki
Procedure: (§1) Bioassays utilized water from an artesian well at Moscow, Idaho and from the headwaters of the Palouse River, also in Idaho. The chemical characteristics of the artesian water were analyzed as follows: Total hardness 67-120 mg/l; total dissolved solids, 160-175 mg/l; and pH 7.1. The chemistry of the Palouse River water was analyzed as follows: total hardness 17 mg/l; methyl orange alkalinity 26 mg/l; total dissolved solids, 32 mg/l and pH, 7.0.
(§2) Fish were acclimated to test temperatures, usually at 5, 7.5, 10, 15 and 20 degrees Celsius (C), at least 60 hours before exposure to toxicants. For fish and crayfish four water baths regulated the temperature of assay aquaria. Each water bath contained a battery of 20 identical 19-liter clear glass containers or 11.4-liter plastic aquaria lined with disposable polyethylene bags and covered with Plexiglass lids to reduce evaporation. For larger fish and large numbers of fish the bioassays were made in two temperature controlled rooms that contained a series of 700-liter circular fiberglass vats and a series of 76- and 91-liter plastic containers.
(§3) Standard bioassay techniques were used in sorting fish and conducting the tests. Fish were placed in aerated test aquaria overnight to permit fish to recover from stress due to handling and to deprive them of food. The average load varied but most bioassays were conducted with about 1 g of fish per liter of water.
(§4) Aliquots of organophosphates were dissolved in ethanol and dispensed to the aquaria to provide concentrations suitable for obtaining the LC0 and LC50 of desirable fish and the LC50 and LC100 of target fish. Control fish were conditioned in the same manner as the test fish, but no chemical was added to the control vessels during the assays. After the addition of a chemical, observations were made mainly at 3, 6, 12, 24, 48, 96, and 192 h. The weight and fork length of fish were obtained when fishes were sacrificed.
(§5) Delineation bioassays determined primarily the LC50 and LC100 of sucker and stickleback and the LC0 and LC50 of salmonids.
(§6) The statistical LC1, LC50, and LC99 were interpolated and/or extrapolated using probit graph paper to approximate the LC0, LC50, and LC100 when the latter set of values was not closely determined by single concentrations in a series.
(§7) The approximate LC50 and LC100 of the target fishes (threespine and brook sticklebacks and bridgelip and white suckers) are tabulated in Table 1. The 96-hour selectivity and safety indices of selected species of salmonids versus the three-spine stickleback are tabulated in Table 3.
(§8) Threespine stickleback, brook stickleback, bridgelip sucker, white sucker, chinook salmon, coho salmon, sockeye salmon, kokanee, Kamloops trout, cutthroat trout, and brook trout were treated with various concentrations of 2, 2, 2, 1-tetrachloroethyl diethyl phosphate and at various temperatures to determine approximate selectivity and safety indices. The approximate LC50 and LC100 of the target fishes (threespine and brook sticklebacks and bridgelip and white suckers) are tabulated in Table 5. The 96-hour selectivity and safety indices of selected species of salmonids versus the threespine stickleback are tabulated in Table 7.

[1] = as above; type: in vivo, S. clarki; settings: cutthroat trout, water
Procedure: as §1, §2, §3, §4, §5, §6, §7, §8

in vivo = settings: chinook salmon
bridgelip sucker = assay: Selectivity and safety indices of salmonids versus the bridgelip sucker; type: in vivo, Catastomus columbianus; settings: 96 h
Text: as §5, §6, §7, §8

Kamloops trout = assay: Static bioassay, lethal concentration to Kamloops trout; type: in vivo, Kamloops (an adfluvial rainbow trout)
Procedure: as §1, §2, §3, §4, §5, §6, §7, §8

[2] = as above; type: in vivo, Kamloops (an adfluvial rainbow trout); settings: kamloops trout, in vivo
Procedure: as §1, §2, §3, §4, §5, §6, §7, §8

suckers = assay: Control of suckers in 24-hour applications, usable concentration; type: in vivo
Text: For field applications the concentration of the dichloro- and tetrachloro-compounds would vary with water quality--mainly with regard to water temperature and hydrogen ion concentrations. Generally, treated areas would contain water low in dissolved solids and a pH of 7 to 7.5. The activity of the chemicals would then be essentially similar to that determined in our tests using river water. For the treatment of rivers and shorelines of lakes the concentrations of the dichloro- and tetrachloro-compounds that would be used would be those that would kill stickleback or suckers in 12 to 24 hours. The information above, relating to Examples 1 and 12, substantiates improvement in fish culture by the addition of dichloroethyl or dichlorovinyl diethyl phosphate to an aqueous habitat at a concentration in water ranging between 0.1 and 10 mg/l. […] The information above, relating to Example 2, substantiates improvement in fish culture by the addition of tetrachloroethyl diethyl phosphate to an aqueous habitat at a concentration in water ranging between 4 and 80 μg/l.

brook trout = assay: Static bioassay, lethal concentration to brook trout; type: in vivo, Salvelinus fontinalis; settings: 15 C
Procedure: as §1, §2, §3, §4, §5, §6, §7, §8

[3] = as above; type: in vivo, Salvelinus fontinalis; settings: brook trout, water, 15 C
Procedure: as §1, §2, §3, §4, §5, §6, §7, §8

[4] = 10 C, individually, read-out: LC50
[5] = with 2 Cl 1:300, 10 C, read-out: LC50 in combination, 4 Cl component
[6] = with 4 Cl 300:1, 10 C, read-out: LC50 in combination, 2 Cl component

CCOP(=O)(OCC)OC(Cl)C(Cl)(Cl)Cl (stereo not shown) [2,2,2,1-tetrachloroethyl diethyl phosphate]
LC0 (cutthroat trout; 10 C, 96 h): 14 µg/L | LC0 (cutthroat trout; 10 C, 192 h): 14 µg/L | LC0 (cutthroat trout; 15 C, 48 h): 14 µg/L | LC0 (cutthroat trout; 15 C, 96 h): 14 µg/L | LC0 (cutthroat trout; 15 C, 192 h): 14 µg/L | LC50 at 96 h ([1]; 10 C): 0.019 µg/mL | LC50 at 192 h ([1]; 10 C): 0.017 µg/mL | LC50 at 48 h ([1]; 15 C): 0.022 µg/mL | LC50 at 96 h ([1]; 15 C): 0.018 µg/mL | LC50 at 192 h ([1]; 15 C): 0.018 µg/mL | LC50 at 48 h (in vivo): 0.035 µg/mL | LC50 at 96 h (in vivo): 0.025 µg/mL | LC50 at 192 h (in vivo): 0.025 µg/mL | Safety index (LC0/LC100) (bridgelip sucker; Kamloops, 5 C): 2.4 | Selectivity index (LC50/LC50) (bridgelip sucker; Kamloops, 5 C): 4.3 | Safety index (LC0/LC100) (bridgelip sucker; Kamloops, 10 C): 1.8 | Selectivity index (LC50/LC50) (bridgelip sucker; Kamloops, 10 C): 6.0 | Safety index (LC0/LC100) (bridgelip sucker; Kamloops, 15 C): 2.1 | Selectivity index (LC50/LC50) (bridgelip sucker; Kamloops, 15 C): 6.0 | Safety index (LC0/LC100) (bridgelip sucker; brook trout, 15 C): 1.4 | Selectivity index (LC50/LC50) (bridgelip sucker; brook trout, 15 C): 5.0 | Safety index (LC0/LC100) (bridgelip sucker; chinook, 10 C): 2.4 | Selectivity index (LC50/LC50) (bridgelip sucker; chinook, 10 C): 6.3 | Safety index (LC0/LC100) (bridgelip sucker; coho, 10 C): 1.7 | Selectivity index (LC50/LC50) (bridgelip sucker; coho, 10 C): 5.8 | Safety index (LC0/LC100) (bridgelip sucker; cutthroat, 10 C): 1.7 | Selectivity index (LC50/LC50) (bridgelip sucker; cutthroat, 10 C): 4.8 | Safety index (LC0/LC100) (bridgelip sucker; cutthroat, 15 C): 2.0 | Selectivity index (LC50/LC50) (bridgelip sucker; cutthroat, 15 C): 4.5 | Safety index (LC0/LC100) (bridgelip sucker; kokanee, 15 C): 2.9 | Selectivity index (LC50/LC50) (bridgelip sucker; kokanee, 15 C): 7.5 | Safety index (LC0/LC100) (bridgelip sucker; sockeye, 10 C): 1.4 | Selectivity index (LC50/LC50) (bridgelip sucker; sockeye, 10 C): 7.5 | LC0 (Kamloops trout; 5 C, 96 h): 0.024 mg/L | LC0 (Kamloops trout; 5 C, 192 h): 0.012 mg/L | LC0 (Kamloops trout; 10 C, 96 h, individually, listed as 2, 2, 2, 1-tetrachloroethyl diethyl phosphate): 0.018 mg/L and 0.014 mg/L | LC0 (Kamloops trout; 10 C, 96 h, individually, listed as 4 Cl): 0.014 mg/L | LC0 (Kamloops trout; 10 C, 192 h): 0.01 mg/L | LC0 (Kamloops trout; 15 C, 96 h): 0.024 mg/L | LC0 (Kamloops trout; 15 C, 192 h): 0.014 mg/L | LC50 at 96 h ([2]; 5 C, read-out: LC50): > 0.03 µg/mL | LC50 at 192 h ([2]; 5 C, read-out: LC50): 0.018 µg/mL | LC50 at 96 h [2, 4]: 0.024 µg/mL | LC50 at 192 h [2, 4]: 0.02 µg/mL | LC50 at 96 h ([2]; 15 C, read-out: LC50): > 0.024 µg/mL | LC50 at 192 h ([2]; 15 C, read-out: LC50): > 0.024 µg/mL | LC50 at 96 h [2, 5]: 0.008 µg/mL | LC50 at 192 h [2, 5]: 0.005 µg/mL | estimated LC100 of the sucker (suckers; relative to 6 to 4 μg/l for stickleback, 10 C): essentially the same | LC0 (brook trout; 48 h): 10 µg/L | LC0 (brook trout; 96 h): 10 µg/L | LC0 (brook trout; 192 h): 10 µg/L | LC50 at 48 h [3]: 0.022 µg/mL | LC50 at 96 h [3]: 0.02 µg/mL | LC50 at 192 h [3]: 0.02 µg/mL

CCOP(=O)(OC=C(Cl)Cl)OCC [2,2-dichlorovinyl diethyl phosphate]
LC0 (cutthroat trout; 10 C, 96 h): 4000 µg/L | LC0 (cutthroat trout; 15 C, 48 h): 4000 µg/L | LC0 (cutthroat trout; 15 C, 96 h): 2000 µg/L | LC0 (cutthroat trout; 15 C, 192 h): 1000 µg/L | LC50 at 192 h ([1]; 10 C): 4.8 µg/mL | LC50 at 48 h ([1]; 15 C): 5.3 µg/mL | LC50 at 96 h ([1]; 15 C): 2.5 µg/mL | LC50 at 192 h ([1]; 15 C): 1.8 µg/mL | LC50 at 192 h (in vivo): 5 µg/mL | Safety index (LC0/LC100) (bridgelip sucker; Kamloops, 5 C): 7 | Selectivity index (LC50/LC50) (bridgelip sucker; Kamloops, 5 C): > 34 | Safety index (LC0/LC100) (bridgelip sucker; Kamloops, 10 C): 20 | Selectivity index (LC50/LC50) (bridgelip sucker; Kamloops, 10 C): 67 | Safety index (LC0/LC100) (bridgelip sucker; Kamloops, 15 C): 10 | Selectivity index (LC50/LC50) (bridgelip sucker; Kamloops, 15 C): 70 | Safety index (LC0/LC100) (bridgelip sucker; brook trout, 15 C): 20 | Selectivity index (LC50/LC50) (bridgelip sucker; brook trout, 15 C): 66 | Safety index (LC0/LC100) (bridgelip sucker; chinook, 10 C): 60 | Selectivity index (LC50/LC50) (bridgelip sucker; chinook, 10 C): 87 | Safety index (LC0/LC100) (bridgelip sucker; chinook, 15 C): 27 | Selectivity index (LC50/LC50) (bridgelip sucker; chinook, 15 C): 68 | Safety index (LC0/LC100) (bridgelip sucker; cutthroat, 10 C): 40 | Selectivity index (LC50/LC50) (bridgelip sucker; cutthroat, 10 C): > 60 | Safety index (LC0/LC100) (bridgelip sucker; cutthroat, 15 C): 20 | Selectivity index (LC50/LC50) (bridgelip sucker; cutthroat, 15 C): 50 | Safety index (LC0/LC100) (bridgelip sucker; sockeye, 7.5 C): 30 | Selectivity index (LC50/LC50) (bridgelip sucker; sockeye, 7.5 C): 100 | Safety index (LC0/LC100) (bridgelip sucker; sockeye, 10 C): 30 | Selectivity index (LC50/LC50) (bridgelip sucker; sockeye, 10 C): 75 | Safety index (LC0/LC100) (bridgelip sucker; steelhead, 5 C): 13 | Selectivity index (LC50/LC50) (bridgelip sucker; steelhead, 5 C): 47 | LC0 (Kamloops trout; 5 C, 48 h): > 4.0 mg/L | LC0 (Kamloops trout; 5 C, 96 h): 2.0 mg/L | LC0 (Kamloops trout; 5 C, 192 h): 1.4 mg/L | LC0 (Kamloops trout; 10 C, 48 h): > 4.0 mg/L | LC0 (Kamloops trout; 10 C, 96 h): 2.0 mg/L | LC0 (Kamloops trout; 10 C, 96 h, individually): 2 mg/L | LC0 (Kamloops trout; 10 C, 192 h): 1.0 mg/L | LC0 (Kamloops trout; 15 C, 48 h): 3.0 mg/L | LC0 (Kamloops trout; 15 C, 96 h): 1.0 mg/L | LC0 (Kamloops trout; 15 C, 192 h): 1.0 mg/L | LC50 at 192 h ([2]; 5 C, read-out: LC50): 5.1 µg/mL | LC50 at 96 h [2, 4]: 5 µg/mL | LC50 at 96 h ([2]; 10 C, read-out: LC50): 5.4 µg/mL | LC50 at 192 h [2, 4]: 2 µg/mL | LC50 at 192 h ([2]; 10 C, read-out: LC50): 2 µg/mL | LC50 at 96 h ([2]; 15 C, read-out: LC50): 3.5 µg/mL | LC50 at 192 h ([2]; 15 C, read-out: LC50): 3 µg/mL | LC50 at 96 h [2, 6]: 2.4 µg/mL | LC50 at 192 h [2, 6]: 1.5 µg/mL | recommended safe and effective concentration (suckers; 10 to 15 C, river water tests): 1.0 mg/L | LC0 (brook trout; 48 h): 4000 µg/L | LC0 (brook trout; 96 h): 2000 µg/L | LC0 (brook trout; 192 h): 800 µg/L | LC50 at 48 h [3]: 5 µg/mL | LC50 at 96 h [3]: 3.3 µg/mL | LC50 at 192 h [3]: 3.2 µg/mL
